# Data published in ChEMBL document CHEMBL3885881, “DrugMatrix”.
# Species on record: Rattus norvegicus
# Assay: DrugMatrix - Regimen: Daily Repeat
# Type: toxicity, organism-based, Sprague-Dawley
# Set-up: regimen Daily Repeat, gender Male, age 6-8 weeks
# Settings: in vivo, iv, […], vehicle 100 % SALINE; for ALANINE AMINOTRANSFERASE / ALBUMIN / ALKALINE PHOSPHATASE / ASPARTATE AMINOTRANSFERASE / BLOOD UREA NITROGEN / CARBON DIOXIDE / CHLORIDE / CHOLESTEROL / CREATINE PHOSPHOKINASE / CREATININE / GLUCOSE / LACTATE DEHYDROGENASE / LIPASE / PHOSPHORUS / POTASSIUM / SODIUM / TOTAL BILIRUBIN / TOTAL PROTEIN / URIC ACID: tissue Plasma; for ABSOLUTE BASOPHIL / ABSOLUTE EOSINOPHIL / ABSOLUTE LYMPHOCYTE / ABSOLUTE MONOCYTE / ABSOLUTE SEGMENTED NEUTROPHIL / BASOPHIL / EOSINOPHIL / ERYTHROCYTE COUNT / HEMATOCRIT / HEMOGLOBIN / LEUKOCYTE COUNT / LYMPHOCYTE / MEAN CORPUSCULAR HEMOGLOBIN / MEAN CORPUSCULAR HEMOGLOBIN CONCENTRATION / MEAN CORPUSCULAR VOLUME / MONOCYTE / NEUTROPHIL / NUCLEATED RED BLOOD CELLS / PLATELET COUNT: tissue Blood
# [1] = 72 h, dose 0.0033 mg/Kg, dose level Low, time 3 day
# [2] = 72 h, dose 0.033 mg/Kg, dose level High, time 3 day
# [3] = 120 h, dose 0.0033 mg/Kg, dose level Low, time 5 day
# [4] = 120 h, dose 0.033 mg/Kg, dose level High, time 5 day
smiles,measurement,setting,value
COc1cc2c3cc1Oc1cc(ccc1O)C[C@@H]1c4c(cc(OC)c(O)c4Oc4ccc(cc4)C[C@@H]3N(C)CC2)CC[N+]1(C)C.[Cl-],ALANINE AMINOTRANSFERASE,[1],58 u/L
same,ALBUMIN,[1],4.23 G/DL
same,ALKALINE PHOSPHATASE,[1],467.33 u/L
same,ASPARTATE AMINOTRANSFERASE,[1],94 u/L
same,BLOOD UREA NITROGEN,[1],17 mg/dL
same,CARBON DIOXIDE,[1],33 mmol/L
same,CHLORIDE,[1],101 MEQ/L
same,CHOLESTEROL,[1],69.33 mg/dL
same,CREATINE PHOSPHOKINASE,[1],839.67 u/L
same,CREATININE,[1],0.22 mg/dL
same,GLUCOSE,[1],165 mg/dL
same,LACTATE DEHYDROGENASE,[1],138 u/L
same,LIPASE,[1],8.33 u/L
same,PHOSPHORUS,[1],10.83 mg/dL
same,POTASSIUM,[1],5.81 MEQ/L
same,SODIUM,[1],143.17 MEQ/L
same,TOTAL BILIRUBIN,[1],0.2 mg/dL
same,TOTAL PROTEIN,[1],5.87 G/DL
same,URIC ACID,[1],0.9 mg/dL
same,ALANINE AMINOTRANSFERASE,[2],56 u/L
same,ALBUMIN,[2],3.97 G/DL
same,ALKALINE PHOSPHATASE,[2],312.33 u/L
same,ASPARTATE AMINOTRANSFERASE,[2],91.67 u/L
same,BLOOD UREA NITROGEN,[2],16.33 mg/dL
same,CARBON DIOXIDE,[2],28 mmol/L
same,CHLORIDE,[2],101.33 MEQ/L
same,CHOLESTEROL,[2],75.33 mg/dL
same,CREATINE PHOSPHOKINASE,[2],431.33 u/L
same,CREATININE,[2],0.2 mg/dL
same,GLUCOSE,[2],169 mg/dL
same,LACTATE DEHYDROGENASE,[2],240.33 u/L
same,LIPASE,[2],12.67 u/L
same,PHOSPHORUS,[2],11.4 mg/dL
same,POTASSIUM,[2],5.83 MEQ/L
same,SODIUM,[2],141.23 MEQ/L
same,TOTAL BILIRUBIN,[2],0.2 mg/dL
same,TOTAL PROTEIN,[2],5.67 G/DL
same,URIC ACID,[2],1.5 mg/dL
same,ABSOLUTE BASOPHIL,[3],0 CELLS/uL
same,ABSOLUTE EOSINOPHIL,[3],0 CELLS/uL
same,ABSOLUTE LYMPHOCYTE,[3],11354.67 CELLS/uL
same,ABSOLUTE MONOCYTE,[3],87 CELLS/uL
same,ABSOLUTE SEGMENTED NEUTROPHIL,[3],958.33 CELLS/uL
same,BASOPHIL,[3],0%
same,EOSINOPHIL,[3],0%
same,ERYTHROCYTE COUNT,[3],5.2 x10E6/uL
same,HEMATOCRIT,[3],33.13%
same,HEMOGLOBIN,[3],13.43 G/DL
same,LEUKOCYTE COUNT,[3],12.4 x10E3/uL
same,LYMPHOCYTE,[3],91.67%
same,MEAN CORPUSCULAR HEMOGLOBIN,[3],25.8 pg
same,MEAN CORPUSCULAR HEMOGLOBIN CONCENTRATION,[3],40.53 G/DL
same,MEAN CORPUSCULAR VOLUME,[3],63.7 fL
same,MONOCYTE,[3],0.67%
same,NEUTROPHIL,[3],7.67%
same,NUCLEATED RED BLOOD CELLS,[3],0 /100WBC
same,PLATELET COUNT,[3],1167.67 x10E3/uL
same,ABSOLUTE BASOPHIL,[4],0 CELLS/uL
same,ABSOLUTE EOSINOPHIL,[4],146 CELLS/uL
same,ABSOLUTE LYMPHOCYTE,[4],11010.33 CELLS/uL
same,ABSOLUTE MONOCYTE,[4],173 CELLS/uL
same,ABSOLUTE SEGMENTED NEUTROPHIL,[4],1104 CELLS/uL
same,BASOPHIL,[4],0%
same,EOSINOPHIL,[4],1%
same,ERYTHROCYTE COUNT,[4],5.51 x10E6/uL
same,HEMATOCRIT,[4],34.03%
same,HEMOGLOBIN,[4],13.57 G/DL
same,LEUKOCYTE COUNT,[4],12.43 x10E3/uL
same,LYMPHOCYTE,[4],88.67%
same,MEAN CORPUSCULAR HEMOGLOBIN,[4],24.63 pg
same,MEAN CORPUSCULAR HEMOGLOBIN CONCENTRATION,[4],39.87 G/DL
same,MEAN CORPUSCULAR VOLUME,[4],61.77 fL
same,MONOCYTE,[4],1.33%
same,NEUTROPHIL,[4],9%
same,NUCLEATED RED BLOOD CELLS,[4],0 /100WBC
same,PLATELET COUNT,[4],1282.67 x10E3/uL
same,ALANINE AMINOTRANSFERASE,[3],55.67 u/L
same,ALBUMIN,[3],4.07 G/DL
same,ALKALINE PHOSPHATASE,[3],352.67 u/L
same,ASPARTATE AMINOTRANSFERASE,[3],91.67 u/L
same,BLOOD UREA NITROGEN,[3],20.67 mg/dL
same,CARBON DIOXIDE,[3],28 mmol/L
same,CHLORIDE,[3],102.67 MEQ/L
same,CHOLESTEROL,[3],72.67 mg/dL
same,CREATINE PHOSPHOKINASE,[3],402.33 u/L
same,CREATININE,[3],0.22 mg/dL
same,GLUCOSE,[3],169 mg/dL
same,LACTATE DEHYDROGENASE,[3],354.67 u/L
same,LIPASE,[3],10 u/L
same,PHOSPHORUS,[3],11.7 mg/dL
same,POTASSIUM,[3],6.36 MEQ/L
same,SODIUM,[3],144.1 MEQ/L
same,TOTAL BILIRUBIN,[3],0.17 mg/dL
same,TOTAL PROTEIN,[3],5.8 G/DL
same,URIC ACID,[3],1.53 mg/dL
same,ALANINE AMINOTRANSFERASE,[4],66.33 u/L
same,ALBUMIN,[4],4.17 G/DL
same,ALKALINE PHOSPHATASE,[4],366.33 u/L
same,ASPARTATE AMINOTRANSFERASE,[4],97.67 u/L
same,BLOOD UREA NITROGEN,[4],17.33 mg/dL
same,CARBON DIOXIDE,[4],29.33 mmol/L
same,CHLORIDE,[4],101.33 MEQ/L
same,CHOLESTEROL,[4],68.67 mg/dL
same,CREATINE PHOSPHOKINASE,[4],303.67 u/L
same,CREATININE,[4],0.15 mg/dL
same,GLUCOSE,[4],156.33 mg/dL
same,LACTATE DEHYDROGENASE,[4],446 u/L
same,LIPASE,[4],10.67 u/L
same,PHOSPHORUS,[4],11.53 mg/dL
same,POTASSIUM,[4],5.71 MEQ/L
same,SODIUM,[4],142.9 MEQ/L
same,TOTAL BILIRUBIN,[4],0.2 mg/dL
same,TOTAL PROTEIN,[4],5.73 G/DL
same,URIC ACID,[4],1.33 mg/dL
